Source: patent US20250179059A1 (The Regents of the University of California, priority 2021, published 2025)

Assays:
[1] = system: human SKM-1 acute myeloid leukemia cells; experiment: SKM-1 antiproliferation cell-based assay (ATPlite); details: Homo sapiens
Experimental: The cell-based assay indirectly measures cell density (and therefore proliferation and/or survival) by detecting total ATP concentration in a homogeneous format. Briefly, human SKM-1 acute myeloid leukemia cells (Leibniz Institute DSMZ #ACC 547) proliferating in log phase are collected by centrifugation, re-suspended in culture media (RPMI 1640/15% FBS/100 U/mL penicillin/100 μg/mL streptomycin) and diluted to 34722 cells/mL in media after counting. Then 180 μL cells are plated per well into a 96-well tissue-culture treated, clear bottom plate (Coming #3603). A 96-well compound plate (Corning #3357) is then generated by serial dilution of compounds into DMSO over nine concentrations and adding separate negative (DMSO) and positive control (reference compound) wells. Each compound concentration is tested in triplicate. First, 1 μL from each well of the compound plate is added to 99 μL culture media in an intermediate plate and mixed by pipetting. Then 20 μL of the diluted compounds in media are added to the assay plate containing the cells. The assay plate is maintained for 4 days in a standard cell culture incubator. At the end of the incubation period, 100 μL ATPlite Istep (PerkinElmer) is added to the assay plate wells, and the resulting luminescence is detected using an Infinite M1000 or a Spark multimode plate reader (Tecan). Data analysis is performed in Prism (GraphPad Software). For curve fitting, a non-linear regression, variable slope equation is used to calculate cellular IC50s.

[2] = target: T1, human BRD4 bromodomain II (Homo sapiens, UniProt O60885); experiment: Bromodomain binding assay (AlphaScreen), BRD4 BDII; details: AlphaScreen assay, Table C2; read-out: BRD4 BDII IC50
T1 construct: human BRD4 bromodomain II [based on Genbank NM_058243, residues 349-460]; host or cells: E. coli
Outline: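 Inhibition of acetyl-H4 peptide binding to human BRD4 bromodomains is measured by bead-based proximity (AlphaScreen) in pH 7.5 HEPES buffer containing 0.05% CHAPS and 0.1% BSA. Ten compound concentrations in 3-fold steps give competitive binding IC50s.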

[3] = SKM-1, 96 h, SKM-1 antiproliferation assay, 4 days, Table C2
[4] = SKM-1, SKM-1 antiproliferation assay

| Compound | GI50 [1, 3] [nM] | IC50 [2] [nM] | GI50 [1, 4] [nM] |
| --- | --- | --- | --- |
| CC(=O)Nc1ccc(-c2cc(F)cc(-c3cccc(N4CCNCC4)c3)c2O)cc1F [Example 180, N-(3,5′-difluoro-2′-hydroxy-3″-(piperazin-1-yl)-[1,1′:3′,1″-terphenyl]-4-yl)acetamide] | 300 to 3000 | 1 to 10 | – |
| CC(=O)Nc1ccc(-c2cccc(-c3ccc(F)c(N4CCNCC4)c3)c2O)cc1F [Example 182, N-(3,4″-difluoro-2′-hydroxy-3(piperazin-1-yl)-[1,1′:3′,1″-terphenyl]-4-yl)acetamide] | 300 to 3000 | 1 to 10 | – |
| CC(=O)Nc1ccc(-c2cccc(-c3cccc(N4CCN[C@H](C)C4)c3)c2O)cc1F [Example 193, (R)-N-(3-fluoro-2′-hydroxy-3″-(3-methylpiperazin-1-yl)-[1,1′:3′,1″-terphenyl]-4-yl)acetamide] | 300 to 3000 | 1 to 10 | – |
| CC(=O)Nc1ccc(-c2cccc(-c3ccnc(N4CCC(O)C4)c3)c2O)cc1F (stereo not shown) [Example 199, N-(3-fluoro-2′-hydroxy-3′-(2-(3-hydroxypyrrolidin-1-yl)pyridin-4-yl)-[1,1′-biphenyl]-4-yl)acetamide] | 300 to 3000 | 1 to 10 | – |
| CC(=O)Nc1ccc(-c2cccc(-c3cc(Cl)cc(N4CCNCC4)c3)c2O)cc1F [Example 214, N-(3″-chloro-3-fluoro-2′-hydroxy-5″-(piperazin-1-yl)-[1,1′:3′,1″-terphenyl]-4-yl)acetamide] | 300 to 3000 | 1 to 10 | – |
| O=C1CCCN1c1ccc(-c2cc(F)cc(-c3ccnc(N4CCNCC4)c3)c2O)cc1Cl [Example 217, 1-(3-chloro-5′-fluoro-2′-hydroxy-3′-(2-(piperazin-1-yl)pyridin-4-yl)-[1,1′-biphenyl]-4-yl)pyrrolidin-2-one] | 300 to 3000 | 1 to 10 | – |
| CC(=O)Nc1ccc(-c2cc(F)cc(-c3ccnc(N4CCNCC4)c3)c2O)cc1Cl [Example 222, N-(3-chloro-5′-fluoro-2′-hydroxy-3′-(2-(piperazin-1-yl)pyridin-4-yl)-[1,1′-biphenyl]-4-yl)acetamide] | 300 to 3000 | 1 to 10 | – |
| CC(=O)Nc1ccc(-c2cccc(-c3cc(Cl)nc(N4CCNCC4)c3)c2O)cc1F [Example 226, N-(3′-(2-chloro-6-(piperazin-1-yl)pyridin-4-yl)-3-fluoro-2′-hydroxy-[1,1′-biphenyl]-4-yl)acetamide] | 300 to 3000 | 1 to 10 | – |
| CC(=O)Nc1ccc(-c2cccc(-c3ccnc(N4CCC(CO)C4)c3)c2O)cc1F (stereo not shown) [Example 230, N-(3-fluoro-2′-hydroxy-3′-(2-(3-(hydroxymethyl)pyrrolidin-1-yl)pyridin-4-yl)-[1,1′-biphenyl]-4-yl)acetamide] | 300 to 3000 | 1 to 10 | – |
| O=C1NCCN1c1ccc(-c2cccc(-c3ccnc(N4CCNCC4)c3)c2O)cc1F [Example 231, 1-(3-fluoro-2′-hydroxy-3′-(2-(piperazin-1-yl)pyridin-4-yl)-[1,1′-biphenyl]-4-yl)imidazolidin-2-one] | 300 to 3000 | 1 to 10 | – |
| Cc1cc(-c2ccc(-n3ccsc3=O)c(Cl)c2)c(O)c(-c2cccc(N3CCN(C(C)(C)C)CC3)c2)n1 [Example 1053, 3-(4-(2-(3-(4-(tert-butyl)piperazin-1-yl)phenyl)-3-hydroxy-6-methylpyridin-4-yl)-2-chlorophenyl)thiazol-2(3H)-one] | – | – | 0.3 to 30 |
| Cn1ccn(-c2ccc(-c3cc(F)nc(-c4cccc(N5CCN(C(C)(C)C)CC5)c4)c3O)cc2F)c1=O [Example 1054, 1-(4-{2-[3-(4-tert-Butyl-piperazin-1-yl)-phenyl]-6-fluoro-3-hydroxy-pyridin-4-yl}-2-fluoro-phenyl)-3-methyl-1,3-dihydro-imidazol-2-one] | – | – | 0.3 to 30 |
| CC1=CCN(c2ccc(-c3cc(C)nc(-c4cccc(N5CCN(C(C)(C)C)CC5)c4)c3O)cc2Cl)C1=O [Example 1055, 1-(4-(2-(3-(4-(tert-butyl)piperazin-1-yl)phenyl)-3-hydroxy-6-methylpyridin-4-yl)-2-chlorophenyl)-3-methyl-1,5-dihydro-2H-pyrrol-2-one] | – | – | 0.3 to 30 |
| Cn1ccn(-c2ccc(-c3cc(F)nc(-c4cccc(N5CCN(C(C)(C)C)CC5)c4)c3N)cc2Cl)c1=O [Example 1056, 1-(4-(3-amino-2-(3-(4-(tert-butyl)piperazin-1-yl)phenyl)-6-fluoropyridin-4-yl)-2-chlorophenyl)-3-methyl-1,3-dihydro-2H-imidazol-2-one] | – | – | 0.3 to 30 |
| Cn1ccn(-c2ccc(-c3nc(F)cc(-c4cccc(N5CCN(C(C)(C)C)CC5)c4)c3N)cc2Cl)c1=O [Example 1057, 1-(4-(3-amino-4-(3-(4-(tert-butyl)piperazin-1-yl)phenyl)-6-fluoropyridin-2-yl)-2-chlorophenyl)-3-methyl-1,3-dihydro-2H-imidazol-2-one] | – | – | 0.3 to 30 |
| Cn1ccn(-c2ccc(-c3cc(F)cc(-c4cccc(N5CCN(C(C)(C)C)CC5)c4)c3N)cc2Cl)c1=O [Example 1058, 1-[2′-Amino-3-(4-tert-butyl-piperazin-1-yl)-3″-chloro-5′-fluoro-[1,1′;3′,1″ ]terphenyl-4″-yl]-3-methyl-1,3-dihydro-imidazol-2-one] | – | – | 0.3 to 30 |
| CCc1ncc(-c2nc(F)cc(-c3ccc(-n4ccn(C)c4=O)c(Cl)c3)c2O)cc1N1CCN(C(C)(C)C)CC1 [Example 1059, 1-(4-(5′-(4-(tert-butyl)piperazin-1-yl)-6′-ethyl-6-fluoro-3-hydroxy-[2,3′-bipyridin]-4-yl)-2-chlorophenyl)-3-methyl-1,3-dihydro-2H-imidazol-2-one] | – | – | 0.3 to 30 |

Results, then the compound that gave them:

| GI50 [1, 3] [nM] | IC50 [2] [nM] | GI50 [1, 4] [nM] | Compound |
| --- | --- | --- | --- |
| 300 to 3000 | 1 to 10 | – | CC(=O)Nc1c(F)cc(-c2cccc(-c3cc(N4CCNCC4)no3)c2O)cc1OC1CC1 [Example 135, N-(3-cyclopropoxy-5-fluoro-2′-hydroxy-3′-(3-(piperazin-1-yl)isoxazol-5-yl)-[1,1′-biphenyl]-4-yl)acetamide 2,2,2-trifluoroacetate] |
| 300 to 3000 | 1 to 10 | – | CN1CCN(c2ccc(-c3cccc(-c4cccc(N5CCNCC5)c4)c3O)cc2F)C1=O [Example 164, 1-(3-Fluoro-2′-hydroxy-3″-(piperazin-1-yl)-[1,1′:3′,1″-terphenyl]-4-yl)-3-methylimidazolidin-2-one] |
| 300 to 3000 | 1 to 10 | – | O=C1CCCN1c1ccc(-c2cccc(-c3cccc(N4CCNCC4)c3)c2O)cc1F [Example 173, 1-(3-fluoro-2′-hydroxy-3″-(piperazin-1-yl)-[1,1′:3′,1″-terphenyl]-4-yl)pyrrolidin-2-one] |
| 30 to 300 | 1 to 10 | – | CC(=O)Nc1ccc(-c2cccc(-c3cncc(N4CCNCC4)c3)c2O)cc1F [Example 189, N-(3-fluoro-2′-hydroxy-3′-(5-(piperazin-1-yl)pyridin-3-yl)-[1,1′-biphenyl]-4-yl)acetamide] |
| 30 to 300 | 1 to 10 | – | CC(=O)Nc1ccc(-c2cccc(-c3cccc(N4CC5CNC(C5)C4)c3)c2O)cc1F (stereo not shown) [Example 206, N-(3″-(3,6-diazabicyclo[3.2.1]octan-3-yl)-3-fluoro-2′-hydroxy-[1,1′:3′,1″-terphenyl]-4-yl)acetamide] |
| 30 to 300 | 1 to 10 | – | O=C1CCCN1c1ccc(-c2cccc(-c3ccnc(N4CCNCC4)c3)c2O)cc1Cl [Example 209, 1-(3-chloro-2′-hydroxy-3′-(2-(piperazin-1-yl)pyridin-4-yl)-[1,1′-biphenyl]-4-yl)pyrrolidin-2-one] |
| 30 to 300 | 1 to 10 | – | CC(=O)Nc1ccc(-c2cc(F)cc(-c3ccnc(N4CCNCC4)c3)c2O)cc1F [Example 224, N-(3,5′-difluoro-2′-hydroxy-3′-(2-(piperazin-1-yl)pyridin-4-yl)-[1,1′-biphenyl]-4-yl)acetamide] |
| 30 to 300 | 1 to 10 | – | CC(=O)Nc1ccc(-c2cccc(-c3cc(C#N)cc(N4CCNCC4)c3)c2O)cc1F [Example 234, N-(3″-cyano-3-fluoro-2′-hydroxy-5″-(piperazin-1-yl)-[1,1′:3′,1″-terphenyl]-4-yl)acetamide] |
| 30 to 300 | 1 to 10 | – | CC(=O)Nc1ccc(-c2cc(F)cc(-c3ccc(C#N)c(N4CCNCC4)c3)c2O)cc1F [Example 235, N-(4″-cyano-3,5′-difluoro-2′-hydroxy-3″-(piperazin-1-yl)-[1,1′:3′,1″-terphenyl]-4-yl)acetamide] |
| 30 to 300 | 1 to 10 | – | CC(=O)Nc1ccc(-c2cccc(-c3ccc(C#N)c(N4CCNCC4)c3)c2O)cc1F [Example 236, N-(4″-cyano-3-fluoro-2′-hydroxy-3″-(piperazin-1-yl)-[1,1′:3′,1″-terphenyl]-4-yl)acetamide] |
| 30 to 300 | 0.01 to 1 | – | CC(=O)Nc1ccc(-c2cc(F)cc(-c3ccc(F)c(N4CCNCC4)c3)c2O)cc1F [Example 237, N-(3,4″,5′-trifluoro-2′-hydroxy-3″-(piperazin-1-yl)-[1,1′:3′,1″-terphenyl]-4-yl)acetamide] |
